Laboratory results as given in paper PMC8776894 (Communications Biology, 2022).
Values joined by “and” are separate entries in the source; they are usually repeats but may differ in a detail not shown here. Equal entries are not always repeated.

Experiments:
MCAO/R mice [1] = assay: Grip test; format: in vivo, mouse; design: grip test (Fig.2g): unit not given here; conditions: for grip test (Fig.2g): individual animals
Protocol: The grip strength (The Chatillon® DFE Digital Force Gauge DFX-050) was used to evaluate the effects of VK on muscular incoordination of mice. The forelimbs of the mice were placed on the test grid and the mice were gently pulled after the animals were grasped and the force value when the claws of the animals were recorded was the grip value. The test was performed at 24 and 48 h after MCAO/R.

[2] = system: BV2 microglia cells (OGD/R); assay: BV2 cell viability after OGD/R (CCK8); conditions: VK 0.0735, 0.735, 7.35 µM
MCAO/R mice [3] = assay: Morris water maze test; format: in vivo, mouse; conditions: for Morris water maze latency to the platform (sheet block Fig.2h): individual animals
Protocol: To evaluate the spatial learning and memory ability of mice, the Morris water maze was performed after MCAO/R at 11, 12, 13, 14, and 15 days as described previously with minor modifications[66],[67]. […] Three trials were performed per day with the platform present and continuously detected for 4 days. Data from those trials were shown as the latency to locate the hidden platform on each day and were in indirect proportion to spatial learning abilities. A single 60 s probe test was performed on each mouse on the final day of testing. The platform was withdrawn and each mouse was placed at the same starting position in the pool and allowed to swim for 60 s. The investigator then recorded the time spent in the target quadrant, where the platform had previously been located. The latter measurements were interpreted as spatial memory.

MCAO/R mice [4] = conditions: mouse, in vivo
rat CNS = conditions: injected directly into the rat CNS; cited from earlier work
Excerpt: B1R and B2R both belong to the G protein-coupled receptor (GPCR) family, with B2R mediating most of the physiological functions of kinin. It has been increasingly appreciated that BK and Lys-BK could act as a ‘double-edged sword’. By inhibiting oxidative stress and apoptosis, the systemic or local delivery of human TK protects against mouse myocardial I/R injury via B2R. Similarly, we described that the neuroprotective effects of VK on stroke in mice was inhibited by HOE140, the specific antagonist of B2R. We also conducted the autodock experiment to evaluate the combination of VK and B2R. The ...

[5] = system: platelet aggregation in platelet rich plasma; assay: Platelet aggregation function test; format: cell-based; conditions: VK 0.0091–0.294 µM; rabbit PRP, ADP 6.07 µmol/L, 5 min maximum aggregation rate
Protocol: Platelet aggregation function test. Venous blood from (normal healthy rabbits) was collected in 3 mL sodium citrate anticoagulation vacuum plastic tubes. The collected venous blood was centrifuged for 10 min at 100 × g at 4℃ to obtain the upper plasma, and the platelet rich plasma (PRP) was prepared, centrifuged again for 10 min at 2000 × g at 4°C to draw the upper plasma, the platelet poor plasma (PPP) was prepared and […] to a platelet concentration of 3×10^8 cells/ml was counted. The adjusted PRP was placed into a four-channel platelet aggregation instrument (Agg RAM, Helena Laboratories, USA) to determine the 5 min maximum platelet aggregation rate with adenosine diphosphate (ADP), arachidonic acid (AA), thrombin, collagen (COL) , and platelet-activating factor (PAF) or saline as inducers (at a final […]
Acute toxicity test. Systemic acute toxicity test by peritoneal injection was performed according to the guideline provided by Center for Drug Evaluation and Research. In addition to the normal group, male mice were randomly divided into the treated groups received a single dose of 1.5 mg/kg, 6 mg/kg, 24 mg/kg, 96 mg/kg and 384 body weight of VK. […]
The obtained plasma was analyzed using an automatic coagulation apparatus (CA1500).

[6] = system: primary cortical neurons and primary microglia; assay: Primary neuron and microglia co-culture, OGD/R, ELISA of proinflammatory factors; format: cell-based, mouse
Protocol: Histological analysis. Organs such as heart, liver, kidney, and brain were excised and fixed in 10% formaldehyde for histological analysis. Their organs were collected and fixed with 4% PFA for 12-18 h, followed by dehydrating using an automatic dehydrator (Leica ASP-300S, Germany) and embedding in paraffin. Then, each sample was coronally cut (4 µm) using a rotatory microtome (Leica RM2245, Germany). The […]
Primary culture of neuron and microglia. Primary cortical neurons (1.0 × 10^5 cells per well in poly-L-lysine-coated 24-well plate) were obtained from fetal C57BL/6 mice of embryonic day 16–17.5, as previously reported1. After careful removal of meninges, cortical tissues were digested in dulbecco's modified eagle medium (DMEM, Gibco) containing 0.05% trypsin (Gibco) at 37 °C for 20 min. DMEM containing 10% FBS (Gibco) was then added to terminate the digestion. The mixture was homogenized by pipetting 120 times and was subsequently filtered with a 100-μm cell strainer (Biologix) and centrifuged at 1000 rpm for 5 min. Then, the cells were collected and resuspended by DMEM supplemented with 10% FBS (Gibco) and penicillin-streptomycin (Gibco).
The suspension was seeded into 24-well plates (10^5 cells/ml), and 4 h later, the medium was changed with Neurobasal medium (Gibco) containing 1% […] and 2% B27 supplement. […]

HT22 cells (OGD/R) = assay: Annexin V-FITC/propidium iodide apoptosis; format: cell-based, mouse; conditions: Annexin V-FITC/PI flow cytometry

In the case of “Gly-Arg-Pro-Hyp-Gly-Phe-Ser-Pro-Phe-Arg-Ile-Asp [VK, Vespakinin-M]”, the “grip test (Fig.2g)” value (MCAO/R mice [1]; VK 150 µg/kg i.p.) is reported as 103 and 99.5 and 136 and 78 and 61.1 and 99 and 115.7, the “grip test (Fig.2g)” value (MCAO/R mice [1]; VK 300 µg/kg i.p.) is reported as 116.6 and 26 and 19.5 and 56.2 and 63.2 and 77 and 80.9 and the “sensorimotor function, grip test” value (MCAO/R mice [1]; VK 150 and 300 µg/kg i.p.) is reported as “improved functional performance and ameliorated the sensorimotor asymmetry”. The “OGD/R-reduced viability of BV2 cells” value [2] was “reversed by VK treatment in a dose-dependent manner”, the “Morris water maze latency to the platform (sheet block Fig.2h)” value (shortened to “Morris water maze latency”) (MCAO/R mice [3]; 11d after MCAO/R, VK 150 µg/kg, 60 s maximum) was 46.96 and 55.37 and 56.98 and 48.52 and 58.61 and 60 and 58.12 and the “Morris water maze latency” value (MCAO/R mice [3]; 11d after MCAO/R, VK 300 µg/kg, 60 s maximum) was 51 and 55.8. For the same substance, the “Morris water maze latency” value (MCAO/R mice [3]; 12d after MCAO/R, VK 150 µg/kg) was 35.17 and 36.55 and 38.29 and 31.14 and 35.03 and 46.91 and 50.97, the “Morris water maze latency” value (MCAO/R mice [3]; 12d after MCAO/R, VK 300 µg/kg) was 43.25 and 49.34 and 39.87 and 44.13 and 49.62 and 33.65 and the “Morris water maze latency” value (MCAO/R mice [3]; 13d after MCAO/R, VK 150 µg/kg) was 12.69 and 22.64 and 25.57 and 20.24 and 33.84 and 30.46 and 33.85. The “Morris water maze latency” value (MCAO/R mice [3]; 13d after MCAO/R, VK 300 µg/kg) was 24.06 and 46.35 and 29.58 and 38.44 and 42.39 and 44, the “Morris water maze latency” value (MCAO/R mice [3]; 14d after MCAO/R, VK 150 µg/kg) was 8.5 and 15.36 and 20.6 and 19.38 and 15.89 and 10.11 and 29.75 and the “Morris water maze latency” value (MCAO/R mice [3]; 14d after MCAO/R, VK 300 µg/kg) was 18.28 and 40.48 and 16.15 and 23.59 and 39.68 and 25.37. The “spatial learning, escape latency” value (MCAO/R mice [3]; day 11–14 after MCAO/R) was “decreased escape latency”, the “spatial memory, probe trial vs vehicle” value (MCAO/R mice [3]; day 15 after MCAO/R) was “more crossovers and spent more time in the platform quadrant” and the “neurological deficits and infarct size vs vehicle (antagonist study)” value (MCAO/R mice [4]) was “attenuated neurological deficits and infarct size”. For the same substance, the “infarct volume, TTC staining” value (MCAO/R mice [4]; ip) was “decreased infarct volume”, the “anti-nociceptive potency relative to BK” value (rat CNS) was “approximately three times more potent” and the “ADP-induced platelet aggregation vs control group” value [5] was “decreased”. For the same substance, the “protection of neurons in co-culture with microglia, proinflammatory cytokines” value [6] was “protects neurons” and the “apoptosis of HT22 cells after OGD/R” value (HT22 cells (OGD/R)) was “restrained apoptosis”.
